Source: patent US7250251B2, “Virion-based fusion assay” (The J. David Gladstone Institutes, priority 2002, dated 2007)

Assays:
[1] = system: CCR5-tropic strain of HIV-1 (81A) containing BlaM-Vpr fusing to CCR5-Jurkat T cells; assay: Virion-based fusion assay (BlaM-Vpr/CCF2) in Jurkat T cells expressing CCR5; format: cell-based; conditions: 250 nM preincubation, R5-tropic 81A virions
Method: (§1) No antibiotics were added to the culture media.
(§2) Light splitting was performed using a 505 SP filter.
To investigate whether the BlaM-Vpr assay discriminates between productive and non-productive virion entry by fusion and endocytosis respectively, Jurkat T cells either expressing or not expression CCR5 were incubated with a CCR5-tropic strain of HIV-1 (81A) containing BlaM-Vpr (FIG. 3). […] These 81A virions were capable of fusion as indicated by the increase in blue fluorescence obtained when these virions were incubated with Jurkat T cells expressing CCR5 (FIG. 3, panel d, compare with mock infection control in FIG. 3, panel c).

[2] = system: CXCR4-tropic HIV-1 virions containing BlaM-Vpr fusing to primary PBMCs; assay: Virion-based fusion assay (BlaM-Vpr/CCF2) in PHA-stimulated PBMCs, flow cytometry; format: cell-based; conditions: CXCR4-tropic virions 100 ng p24 Gag, 2 hours, 5.2% of cells fused without inhibitor
Method: as §1, §2
PBMCs were activated with phytohemagglutinin (PHA) (10 ug/ml) overnight and subsequently cultured in IL-2 (20 IU/ml) for 5 days. The cells were then either mock-infected (FIG. 5, panel a) or infected for 2 hours with 100 ng p24-Gag of X4-tropic NL4-3 virions containing the BlaM-Vpr chimeric viral protein (FIG. 5, panels b, c, d, and e) or 500 ng p24-Gag of R5-tropic […] virions containing the BlaM-Vpr chimeric viral protein (FIG. 5, panels f, g, h, and i) either in the absence of inhibitors (FIG. 5, panel b and f) or in the presence of AMD3100 (250 nM, FIG. 5, panel c and g), […] (250 nM, FIG. 5, panels d and h), or AZT (10 μM, FIG. 5, panels e and i). After CCF2/AM dye loading of the cells, the BlaM reaction was allowed to develop for 12 hours. Virion fusion was analyzed by multi-parameter flow cytometry.

[3] = system: X4-tropic NL4-3 virions containing BlaM-Vpr fusing to SupT1 cells; assay: Virion-based fusion assay (BlaM-Vpr/CCF2) in SupT1 cells, flow cytometry; format: cell-based, HIV-1; conditions: NL4-3, 2 hours, about 20% of cells shifted without inhibitor
Method: as §1, §2
After CCF2/AM loading, fusion was analyzed by multi-parameter flow cytometry using a violet laser for excitation of CCF2.

[4] = system: X4-tropic NL4-3 strain of HIV (BlaM-Vpr-containing virions) fusing to HeLa-CD4 cells; conditions: 250 nM added 1 hour prior to infection, NL4-3 200 ng p24-Gag, 2 hours, about 10% blue cells without inhibitor
Method: The virion-based fusion assay was performed in three successive steps, including 1) incubation of target cells with virus particles; 2) loading of target cells with CCF2/AM dye, and 3) development and detection of the BlaM reaction. Once target cells were loaded with the CCF2 dye, the cells were maintained at room temperature to avoid export of CCF2. Since viral infections are performed at 37° C., the infection step was performed first, and then the cell cultures were subsequently loaded with the CCF2/AM dye. […]
The change in emission fluorescence of CCF2 following cleavage by the BlaM-Vpr chimera was monitored by flow cytometry using a 3 laser Vantage SE instrument (Becton Dickinson, Inc., San Jose, Calif.). […] Blue emission was detected using an HQ455/50 filter while green emission data was collected using an HQ545/90 BP filter. […] Data were collected using CellQuest and analyzed with FlowJo software (Treestar Inc., San Carlos, Calif.). […]
Cultures of HeLa-CD4 cells expressing endogenous CXCR4 receptors were either mock-infected or infected for 2 hours with BlaM-Vpr-containing virions (200 ng p24-Gag) corresponding to an X4-tropic NL4-3 strain of HIV or an R5-tropic 81A strain of HIV. […] After loading of the cells with the CCF2/AM dye, fusion was analyzed by fluorescence microscopy. […]

For `Cc1ccc(-c2ccc3c(c2)C=C(C(=O)Nc2ccc(C[N+](C)(C)C4CCOCC4)cc2)CCC3)cc1.[Cl-]` [TAK-779], the “shift to increased blue fluorescence (virion fusion)” value [1] was “no shift to increased blue fluorescence was observed” and the “inhibition of shift to greater blue fluorescence (virion fusion)” value (shortened to “inhibition of shift”) ([2]; 250 nM pretreatment) was “produced no inhibitory effect”.
For `c1cc(CN2CCCNCCNCCCNCC2)ccc1CN1CCCNCCNCCCNCC1` [AMD3100], the “shift to increased blue fluorescence induced by viral infection (virion fusion)” value ([3]; 250 nM pretreatment) was “almost completely blocked”, the “inhibition of shift” value ([2]; 250 nM pretreatment) was “inhibited this change” and the “blue cells (virion fusion, CCF2 cleavage) in virally infected cells pretreated with inhibitor” value [4] was “essentially no blue cells were detected”.
For `Cc1cn([C@H]2C[C@H](N=[N+]=[N-])[C@@H](CO)O2)c(=O)[nH]c1=O` [AZT], the “shift to increased blue fluorescence induced by viral infection (virion fusion)” value ([3]; 10 μM) was “did not impair the shift to greater blue fluorescence” and the “inhibition of shift” value ([2]; 10 μM pretreatment) was “produced no inhibitory effect”.
